Columns and labels:
HRH4 = biological target: T1, HRH4 (Homo sapiens, UniProt Q9H3N8); assay: NanoBRET screen HiBiT-HRH4 in HEK293; assay type: binding
T1 construct: purchased Promega (in-house HiBiT-GPCR construct library, NanoBRET)
Method: (§1) Each tracer candidate was screened across the entire library of HiBiT-GPCR constructs using NanoBRET as the detection modality. As depicted in Figure 4A, the specificity of interactions was evaluated through decrease in BRET due to competitive displacement of a bound tracer by excess parental compound. Each tracer was analyzed for binding to each HiBiT-GPCR fusion in the absence and in the presence of competing parental compound. Briefly, HEK293 cells were transfected with HiBiT-GPCR constructs diluted into promoterless DNA to reduce expression and maximize translocation to the cell surface. Each tracer candidate was then screened at concentrations of 1 μM and 0.1 μM across cells expressing these fusions. Cells were treated for 1.5 h with tracer either alone or in the presence of 20 μM competing parental compound (i.e., control). BRET was measured upon addition of purified LgBiT and subsequent complementation with HiBiT genetically fused to a GPCR. The specificity of interactions was assessed through a decrease in BRET signal due to competitive displacement of the bound tracer. To further gauge the robustness of these interactions, the fold response over the control (i.e., BRETtracer/BRETcontrol) was calculated. We chose a 1.5-fold response, which translates to ≥7-fold signal over noise as the minimal threshold required to score an interaction as positive. […]. Below we highlight the screening results obtained for our exemplary fluorescent tracers based on Clozapine, Amitriptyline and AZD1283.
(§2) HiBiT-GPCR DNA constructs were diluted in 10 mM Tris pH 8 to a final concentration of 0.01 μg/μL, arrayed in 96-well plates and stored at −20 °C. For transfection, HEK293 cells were suspended in Opti-MEM (without phenol red) supplemented with 2% fetal bovine serum (Seradigm) and 100 units/mL penicillin–streptomycin (Gibco) at a final concentration of 220,000 cells/mL and dispensed into white 96-well plates at 90 μL/well. Subsequent transfections and screens were carried using an Agilent Bravo Automated Liquid Handling Platform. First, the 96-well HiBiT DNA arrays were diluted 25-fold in Opti-MEM (without serum or phenol red) to a final concentration of 0.0004 μg/μL and 20 μL of the diluted DNAs were transferred into new 96-well plates. Next, promoterless carrier DNA (1 μg/μL) was diluted 25-fold (0.04 μg/μL) and then dispensed into the diluted arrays at 20 μL/well. Following brief mixing, Viafect transfection reagent (Promega) diluted 16-fold into Opti-MEM was dispensed into the plates at 40 μL/well. After mixing by pipetting, plates were incubated for 10 min on the pipetting station deck. The DNA-transfection reagent complexes were then added to plates containing cells. To facilitate the screen, 10 μL of DNA-transfection reagent complexes were added in duplicates to the top 4 and bottom 4 rows, resulting in two identical 48-well arrays per plate. Plates with transfected cells were incubated for 18–20 h at 37 °C/5% CO2. A screen of each tracer across the entire library using two different concentrations requires duplicate plates of transfected cells. Depending on the number of tracers being screened, transfections can be scaled up using the same ratios. The next day, for each tracer, four 20× screening solutions in tracer dilution buffer (Promega) were prepared: two duplicates at final concentration of 20 μM and two duplicates at a final concentration of 2 μM. A competing unmodified compound was added to one of each duplicate at a final concentration of 400 μM. The four resulting solutions were diluted 4-fold in Opti-MEM without serum or phenol red to generate 5× solutions (5 µM and 0.5 µM tracer +/− 100 μM competing compound). To screen the library, a BioTek MultiFlo FX liquid dispenser was used to dispense 22.5 µL of tracer solution to the top 4 rows and 22.5 µL tracer + competing compound solution to the 4 bottom rows. Plates were briefly mixed on an orbital shaker and incubated for 1.5 h at room temperature. […]

SSTR1 = biological target: T2, SSTR1 (Homo sapiens, UniProt P30872); assay: NanoBRET screen HiBiT-SSTR1 in HEK293; assay type: binding
T2 construct: purchased Promega (in-house HiBiT-GPCR construct library, NanoBRET)
Method: as §1, §2

[1] = tracer at 1μM, listed as amitriptyline-b-2-NB590

T2 sequence (P30872 whole entry): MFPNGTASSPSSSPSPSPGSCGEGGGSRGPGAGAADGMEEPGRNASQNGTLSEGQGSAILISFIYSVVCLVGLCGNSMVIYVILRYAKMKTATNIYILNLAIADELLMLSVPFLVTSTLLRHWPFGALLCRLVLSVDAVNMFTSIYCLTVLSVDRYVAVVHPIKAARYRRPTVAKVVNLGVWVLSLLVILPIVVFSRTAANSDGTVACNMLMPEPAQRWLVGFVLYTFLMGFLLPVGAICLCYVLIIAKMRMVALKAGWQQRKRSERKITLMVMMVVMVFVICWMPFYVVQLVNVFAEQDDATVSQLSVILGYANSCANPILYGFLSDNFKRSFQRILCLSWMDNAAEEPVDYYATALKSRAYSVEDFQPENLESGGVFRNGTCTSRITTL
T1 sequence (Q9H3N8 whole entry): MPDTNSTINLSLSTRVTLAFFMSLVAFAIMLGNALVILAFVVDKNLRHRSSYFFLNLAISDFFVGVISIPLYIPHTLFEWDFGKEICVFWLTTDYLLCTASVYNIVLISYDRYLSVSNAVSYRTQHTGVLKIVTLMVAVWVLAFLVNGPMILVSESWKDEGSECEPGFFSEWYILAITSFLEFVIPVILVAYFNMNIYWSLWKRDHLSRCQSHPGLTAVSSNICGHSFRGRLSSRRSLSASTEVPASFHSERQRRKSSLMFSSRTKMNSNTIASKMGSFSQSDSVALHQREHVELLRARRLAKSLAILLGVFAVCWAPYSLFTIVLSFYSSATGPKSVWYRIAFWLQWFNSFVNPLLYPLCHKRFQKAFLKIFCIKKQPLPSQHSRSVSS

Row | Structure (SMILES) | NanoBRET Fold Response (HRH4; HRH4, tracer 0.1μM) | NanoBRET Fold Response (HRH4; HRH4, tracer 1μM) | NanoBRET Fold Response (SSTR1; SSTR1, tracer 0.1μM) | NanoBRET Fold Response (SSTR1; SSTR1, tracer 1μM) | further results
1 | Cc1nc2n(c(=O)c1CCN1CCC(c3noc4cc(F)ccc34)CC1)CCCC2OC(=O)NCCOCCOCCOCCOCCNC(=O)CCc1ccc2n1[B-](F)(F)[N+]1=C(c3ccc[nH]3)C=CC1=C2 (stereo not shown) [Risperidone-2-NB590] | 1.03 | 1.07 | 1.08 | 0.94 | –
2 | CCOC(=O)c1cc(C#N)c(N2CCC(C(=O)NS(=O)(=O)Cc3ccccc3/C=C/C(=O)NCCNC(=O)CCc3ccc4n3[B-](F)(F)[N+]3=C(c5ccc[nH]5)C=CC3=C4)CC2)nc1C [AZD1283-1-NB590] | – | – | – | – | NanoBRET Fold Response (HRH4; HRH4, 0.1μM): 1.16; NanoBRET Fold Response (HRH4; HRH4, 1μM): 1.10; NanoBRET Fold Response (SSTR1; SSTR1, 0.1μM): 1.08; NanoBRET Fold Response (SSTR1; SSTR1, 1μM): 1.10
3 | Cc1cc2c(s1)Nc1ccccc1N=C2N1CCN(CCCNC(=O)CCOCCOCCOCCOCCNC(=O)CCc2ccc3n2[B-](F)(F)[N+]2=C(c4ccc[nH]4)C=CC2=C3)CC1 [Olanzapine-a-2-NB590] | 1.01 | 0.94 | 1.08 | 1.16 | –
4 | COc1ccccc1N1CCN(CCCCN2C(=O)c3ccc(CNC(=O)CCOCCNC(=O)c4ccc(CNC(=O)CCc5ccc6n5[B-](F)(F)[N+]5=C(c7ccc[nH]7)C=CC5=C6)cc4)cc3C2=O)CC1 [NAN-190-3-NB590] | 0.93 | 0.93 | 1.03 | 1.12 | –
5 | CC(C)N(CC[C@H](c1ccccc1)c1cc(CCNC(=O)CCOCCOCCOCCOCCNC(=O)CCc2ccc3n2[B-](F)(F)[N+]2=C(c4ccc[nH]4)C=CC2=C3)ccc1O)C(C)C [Tolterodine-2-NB590] | 1.05 | 1.03 | 1.11 | 1.21 | –
6 | CN(C)CCC=C1c2ccccc2CCc2ccc(C(=O)NCCNC(=O)CCOCCOCCOCCOCCNC(=O)CCc3ccc4n3[B-](F)(F)[N+]3=C(c5ccc[nH]5)C=CC3=C4)cc21 [Amitriptyline-b-2-NB590] | – | – | – | – | NanoBRET Fold Response (HRH4; tracer at 0.1μM, listed as amitriptyline-b-2-NB590): 0.97; NanoBRET Fold Response (HRH4; [1]): 1.13; NanoBRET Fold Response (SSTR1; [1]): 1.07
7 | O=C(CCOCCOCCOCCOCCNC(=O)CCc1ccc2n1[B-](F)(F)[N+]1=C(c3ccc[nH]3)C=CC1=C2)NCCCN1CCN(C2=Nc3ccccc3Oc3ccc(Cl)cc32)CC1 [Loxapine-a-2-NB590] | 0.96 | 1.02 | 1.06 | 1.30 | –
8 | CN(C)CCC=C1c2ccccc2CCc2ccc(C(=O)NCCNC(=O)CCOCCOCCOCCOCCNC(=O)CCc3ccc4n3[B-](F)(F)[N+]3=C(c5ccc[nH]5)C=CC3=C4)cc21 [Amitriptyline-a-2-NB590] | – | – | – | – | NanoBRET Fold Response (HRH4; tracer at 0.1μM): 1.23; NanoBRET Fold Response (HRH4; tracer at 1μM): 1.04; NanoBRET Fold Response (SSTR1; tracer at 0.1μM): 1.30; NanoBRET Fold Response (SSTR1; tracer at 1μM): 1.28
9 | O=C(CCc1ccc2n1[B-](F)(F)[N+]1=C(c3ccc[nH]3)C=CC1=C2)NCCOCCOCCNC(=O)OCCOCCN1CCN(C2=Nc3ccccc3Sc3ccccc32)CC1 [Quetiapine-a-2-NB590] | 1.01 | 0.96 | 0.92 | 0.92 | –
10 | COc1ccccc1N1CCN(CCCCN2C(=O)c3ccc(CNC(=O)CCOCCOCCOCCOCCNC(=O)CCc4ccc5n4[B-](F)(F)[N+]4=C(c6ccc[nH]6)C=CC4=C5)cc3C2=O)CC1 [NAN-190-2-NB590] | 0.96 | – | 0.94 | 1.08 | –
11 | CN1CCN(C2=Nc3cc(Cl)ccc3N(CC(=O)NCCOCCOCCOCCOCCNC(=O)CCc3ccc4n3[B-](F)(F)[N+]3=C(c5ccc[nH]5)C=CC3=C4)c3ccccc32)CC1 [Clozapine-c-2-NB590] | – | – | – | – | NanoBRET Fold Response (HRH4; HRH4, 0.1μM tracer): 1.04; NanoBRET Fold Response (HRH4; HRH4, 1μM tracer): 0.97; NanoBRET Fold Response (SSTR1; SSTR1, 0.1μM tracer): 0.98; NanoBRET Fold Response (SSTR1; SSTR1, 1μM tracer): 1.02
12 | COc1ccc2[nH]c(-c3ccc(CNC(=O)CCOCCOCCOCCOCCNC(=O)CCc4ccc5n4[B-](F)(F)[N+]4=C(c6ccc[nH]6)C=CC4=C5)cc3)c(CCNC(C)=O)c2n1 [AzomelatoninICO9-2-NB590] | – | – | – | – | NanoBRET Fold Response (HRH4; 0.1μM tracer): 0.80; NanoBRET Fold Response (HRH4; 1μM tracer): 1.14; NanoBRET Fold Response (SSTR1; 0.1μM tracer): 1.13; NanoBRET Fold Response (SSTR1; 1μM tracer): 1.01
13 | O=C(CCOCCOCCOCCOCCNC(=O)CCc1ccc2n1[B-](F)(F)[N+]1=C(c3ccc[nH]3)C=CC1=C2)NCCCN1CCN(C2=Nc3cc(Cl)ccc3Nc3ccccc32)CC1 [Clozapine-a-2-NB590] | – | – | – | – | NanoBRET Fold Response (HRH4; HRH4, 0.1μM tracer): 1.00; NanoBRET Fold Response (HRH4; HRH4, 1μM tracer): 1.07; NanoBRET Fold Response (SSTR1; SSTR1, 0.1μM tracer): 0.96; NanoBRET Fold Response (SSTR1; SSTR1, 1μM tracer): 1.00
14 | CCCn1c(=O)c2[nH]c(-c3ccc(OCC(=O)NCCNC(=O)CCOCCNC(=O)c4ccc(CNC(=O)CCc5ccc6n5[B-](F)(F)[N+]5=C(c7ccc[nH]7)C=CC5=C6)cc4)cc3)nc2n(CCC)c1=O [XAC-3-NB590] | 1.37 | 1.05 | 0.98 | 1.05 | –
15 | O=C(CCc1ccc2n1[B-](F)(F)[N+]1=C(c3ccc[nH]3)C=CC1=C2)NCc1ccc(C(=O)NCCOCCOCCNCC(O)COc2cccc3ccccc23)cc1 (stereo not shown) [Propranolol-3-NB590] | – | – | – | – | NanoBRET Fold Response (HRH4; HRH4, 0.1μM): 0.92; NanoBRET Fold Response (HRH4; HRH4, 1μM): 0.97; NanoBRET Fold Response (SSTR1; SSTR1, 0.1μM): 1.04; NanoBRET Fold Response (SSTR1; SSTR1, 1μM): 1.02
16 | O=C(CCc1ccc2n1[B-](F)(F)[N+]1=C(c3ccc[nH]3)C=CC1=C2)NCc1ccc(C(=O)NCCOCCC(=O)N[C@@H]2CC[C@@]3(O)[C@H]4Cc5ccc(O)c6c5[C@@]3(CCN4CC3CC3)[C@H]2O6)cc1 [Naltrexone-3-NB590] | 0.75 | 0.91 | 1.06 | 0.96 | –
17 | CN(CCC=C1c2ccccc2CCc2ccccc21)C(=O)CCOCCOCCOCCOCCNC(=O)CCc1ccc2n1[B-](F)(F)[N+]1=C(c3ccc[nH]3)C=CC1=C2 [Amitriptyline-e-2-NB590] | – | – | – | – | NanoBRET Fold Response (HRH4; tracer at 1μM): 0.92
18 | N#CN=C(NCCCOc1cccc(CN2CCCCC2)c1)NCCNC(=O)CCOCCOCCOCCOCCNC(=O)CCc1ccc2n1[B-](F)(F)[N+]1=C(c3ccc[nH]3)C=CC1=C2 [Aminopotentidine-2-NB590] | 0.91 | 1.02 | 1.02 | 0.98 | –
19 | COc1ccc2c(n1)c(CCNC(C)=O)cn2CCNC(=O)CCc1ccc2n1[B-](F)(F)[N+]1=C(c3ccc[nH]3)C=CC1=C2 [Azamelatonin-1-NB590] | – | – | – | – | NanoBRET Fold Response (HRH4; 0.1μM tracer): 0.92; NanoBRET Fold Response (HRH4; 1μM tracer): 0.92; NanoBRET Fold Response (SSTR1; 0.1μM tracer): 1.08; NanoBRET Fold Response (SSTR1; 1μM tracer): 1.03
20 | CC(C)N(CC[C@H](c1ccccc1)c1cc(CCNC(=O)c2ccc(CNC(=O)CCc3ccc4n3[B-](F)(F)[N+]3=C(c5ccc[nH]5)C=CC3=C4)cc2)ccc1O)C(C)C [Tolterodine-BZ-NB590] | 0.82 | 0.88 | 1.15 | 1.20 | –
21 | CN1CCN(C2=Nc3cc(Cl)ccc3Nc3ccc(CNC(=O)CCOCCOCCOCCOCCNC(=O)CCc4ccc5n4[B-](F)(F)[N+]4=C(c6ccc[nH]6)C=CC4=C5)cc32)CC1 [Clozapine-b-2-NB590] | – | – | – | – | NanoBRET Fold Response (HRH4; HRH4, 0.1μM tracer): 1.01; NanoBRET Fold Response (HRH4; HRH4, 1μM tracer): 0.81; NanoBRET Fold Response (SSTR1; SSTR1, 0.1μM tracer): 1.00; NanoBRET Fold Response (SSTR1; SSTR1, 1μM tracer): 1.09

Reference: article PMC8151276, “An Integrated Approach toward NanoBRET Tracers for Analysis of GPCR Ligand Engagement” (Molecules, 2021)
